Assay results taken from PubChem BioAssay (NCI).
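Dose response: 5 concentrations. Exposure: 48 h. Format: 96-well plates. Endpoint: linear interpolation; highest concentration if not reached. TGI is the concentration that stops growth completely.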

Experiments:
Test in all cases: NCI-60 cell line screen, 48 h
SW-620 colon = tested on: SW-620 colon
K-562 leukemia = tested on: K-562 leukemia
HL-60(TB) leukemia = tested on: HL-60(TB) leukemia
HCC-2998 colon = tested on: HCC-2998 colon
HOP-62 NSCLC = tested on: HOP-62 NSCLC
NCI/ADR-RES ovarian = tested on: NCI/ADR-RES ovarian
A549 NSCLC = tested on: A549 NSCLC
MDA-N = tested on: MDA-N
RPMI-8226 leukemia = tested on: RPMI-8226 leukemia
HOP-92 NSCLC = tested on: HOP-92 NSCLC
U251 CNS = tested on: U251 CNS
EKVX NSCLC = tested on: EKVX NSCLC

## S=C(NCc1ccccc1)Nc1sc(=NCc2ccccc2)nc2sc3c(c12)CCN(N1CCc2c(sc4nc(=NCc5ccccc5)sc(NC(=S)NCc5ccccc5)c24)C1)C3
SW-620 colon
  TGI: > 72.5 µM
K-562 leukemia
  TGI: > 100 µM
HL-60(TB) leukemia
  TGI: 42.4 µM
HCC-2998 colon
  TGI: > 62 µM
HOP-62 NSCLC
  TGI: > 100 µM
NCI/ADR-RES ovarian
  TGI: > 100 µM
A549 NSCLC
  TGI: > 62.9 µM
MDA-N
  TGI: > 58.2 µM
RPMI-8226 leukemia
  TGI: > 100 µM
HOP-92 NSCLC
  TGI: > 100 µM
U251 CNS
  TGI: > 47.5 µM
EKVX NSCLC
  TGI: > 64.1 µM

## COc1c2c(c3c(c1OC)c(=O)c1ccccc1n3C)OCO2
SW-620 colon
  TGI: > 100 µM
K-562 leukemia
  TGI: > 100 µM
HL-60(TB) leukemia
  TGI: > 100 µM
HCC-2998 colon
  TGI: > 100 µM
HOP-62 NSCLC
  TGI: > 100 µM
NCI/ADR-RES ovarian
  TGI: > 100 µM
A549 NSCLC
  TGI: > 100 µM
MDA-N
  TGI: > 100 µM
RPMI-8226 leukemia
  TGI: > 100 µM
HOP-92 NSCLC
  TGI: > 100 µM
U251 CNS
  TGI: > 100 µM
EKVX NSCLC
  TGI: > 100 µM
